The values below come from the supplement of paper PMC10307832.

What all share (test): relative viability (nuclei count vs DMSO), 5 days (fraction); higher = more cells survive
Compound in assay [1]: C1=CC(=CC=C1NC(=S)NNC2=C(C=C(C=C2[N+](=O)[O-])C(F)(F)F)[N+](=O)[O-])F [Kobe2602] + CC1(C)CCC(c2ccc(Cl)cc2)=C(CN2CCN(c3ccc(C(=O)NS(=O)(=O)c4ccc(N[C@H](CCN5CCOCC5)CSc5ccccc5)c(S(=O)(=O)C(F)(F)F)c4)cc3)CC2)C1 [Navitoclax] (partner 0.5 µM)
In a few lines: (§1)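 Lung cancer cell lines, seeded in 1536-well plates, were treated the following day by pin tool with a single drug or with five library-drug doses (not always all listed) in √10 steps on top of a fixed anchor-drug dose. Cells were fixed and nuclei stained in one step after 5 days, and nuclei were counted. Relative viability is the nuclei count for treated wells divided by that for vehicle wells, reported as medians of duplicate plates.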

Compound in assay [2]: O[C@@H](COc1cccc2ncccc12)CN1CCN([C@@H]2c3ccccc3[C@@H]3[C@H](c4ccccc42)C3(F)F)CC1 [Zosuquidar] + CC1(C)CCC(c2ccc(Cl)cc2)=C(CN2CCN(c3ccc(C(=O)NS(=O)(=O)c4ccc(N[C@H](CCN5CCOCC5)CSc5ccccc5)c(S(=O)(=O)C(F)(F)F)c4)cc3)CC2)C1 [Navitoclax] (partner 0.5 µM)
In a few lines: as §1

Compound in assay [3]: O[C@@H](COc1cccc2ncccc12)CN1CCN([C@@H]2c3ccccc3[C@@H]3[C@H](c4ccccc42)C3(F)F)CC1 [Zosuquidar] + Cc1cc(Nc2cc(N3CCN(C)CC3)nc(Sc3ccc(NC(=O)C4CC4)cc3)n2)n[nH]1 [Tozasertib] (partner 0.1 µM)
In a few lines:
as §1

Compound in assay [4]: O[C@@H](COc1cccc2ncccc12)CN1CCN([C@@H]2c3ccccc3[C@@H]3[C@H](c4ccccc42)C3(F)F)CC1 [Zosuquidar] + Cc1nc(NC(=O)N2CCC[C@H]2C(N)=O)sc1-c1ccnc(C(C)(C)C(F)(F)F)c1 [Alpelisib] (partner 2 µM)
Summed up:
as §1

For 201T, the relative viability worked out at 1.23 in assay [1] (first compound 0.2 µM); 1.18 in assay [1] (first compound 0.6325 µM); 1.18 in assay [1] (first compound 2 µM); 1.3 in assay [1] (first compound 6.325 µM); 1.29 in assay [1] (first compound 20 µM); 1.1 in assay [2] (first compound 0.01 µM). Moreover, the relative viability in assay [2] (first compound 0.03162 µM) amounted to 1.16; in assay [2] (first compound 0.1 µM), 1.14; in assay [2] (first compound 0.3162 µM) it was 1.2; in assay [2] (first compound 1 µM), 1.21; in assay [3] (first compound 0.01 µM), 0.876; in assay [3] (first compound 0.03162 µM) it was 0.907. The relative viability in assay [3] (first compound 0.1 µM) was determined as 0.888; in assay [3] (first compound 0.3162 µM), 0.993; in assay [3] (first compound 1 µM), 0.854; in assay [4] (first compound 0.01 µM) it was 0.891; in assay [4] (first compound 0.03162 µM), 0.965; in assay [4] (first compound 0.1 µM) it was 0.896. In addition, the relative viability turned out to be 1.01 in assay [4] (first compound 0.3162 µM) and 1.06 in assay [4] (first compound 1 µM).
As to A549, the relative viability was found to be 1.26 in assay [1] (first compound 0.2 µM); 1.21 in assay [1] (first compound 0.6325 µM); 1.22 in assay [1] (first compound 2 µM); 1.11 in assay [1] (first compound 6.325 µM); 1.17 in assay [1] (first compound 20 µM); 1.16 in assay [2] (first compound 0.01 µM). The relative viability in assay [2] (first compound 0.03162 µM) amounted to 0.892; in assay [2] (first compound 0.1 µM), 1.16; in assay [2] (first compound 0.3162 µM), 1.23; in assay [2] (first compound 1 µM), 1.24; in assay [4] (first compound 0.01 µM) it was 0.688; in assay [4] (first compound 0.03162 µM), 0.745. Besides, the relative viability amounted to 0.678 in assay [4] (first compound 0.1 µM), 1.03 in assay [4] (first compound 0.3162 µM) and 0.877 in assay [4] (first compound 1 µM).
Regarding A-427, the relative viability in assay [1] (first compound 0.2 µM) worked out at 1; in assay [1] (first compound 0.6325 µM), 0.945; in assay [1] (first compound 2 µM) it was 0.934; in assay [1] (first compound 6.325 µM) it was 0.97; in assay [1] (first compound 20 µM), 0.459; in assay [2] (first compound 0.01 µM), 1.01. The relative viability turned out to be 0.714 in assay [2] (first compound 0.03162 µM); 0.873 in assay [2] (first compound 0.1 µM); 1.02 in assay [2] (first compound 0.3162 µM); 0.974 in assay [2] (first compound 1 µM); 0.205 in assay [3] (first compound 0.01 µM); 0.247 in assay [3] (first compound 0.03162 µM). In addition, the relative viability in assay [3] (first compound 0.1 µM) was 0.271; in assay [3] (first compound 0.3162 µM) it was 0.218; in assay [3] (first compound 1 µM), 0.192; in assay [4] (first compound 0.01 µM), 1.08; in assay [4] (first compound 0.03162 µM) it was 1.01; in assay [4] (first compound 0.1 µM) it was 0.902. The relative viability stood at 1.07 in assay [4] (first compound 0.3162 µM) and 1.04 in assay [4] (first compound 1 µM).
With ABC-1, the relative viability in assay [3] (first compound 0.01 µM) was 0.143; in assay [3] (first compound 0.03162 µM) it was 0.172; in assay [3] (first compound 0.1 µM), 0.194; in assay [3] (first compound 0.3162 µM) it was 0.234; in assay [3] (first compound 1 µM) it was 0.178; in assay [4] (first compound 0.01 µM), 0.949. The relative viability was 1.07 in assay [4] (first compound 0.03162 µM), 1.06 in assay [4] (first compound 0.1 µM), 0.994 in assay [4] (first compound 0.3162 µM) and 1.16 in assay [4] (first compound 1 µM).
For BEN, the relative viability in assay [1] (first compound 0.2 µM) came out at 0.0992; in assay [1] (first compound 0.6325 µM), 0.0652; in assay [1] (first compound 2 µM), 0.0611; in assay [1] (first compound 6.325 µM), 0.0659; in assay [1] (first compound 20 µM) it was 0.0705; in assay [2] (first compound 0.01 µM), 0.523. Moreover, the relative viability in assay [2] (first compound 0.03162 µM) stood at 0.0629; in assay [2] (first compound 0.1 µM) it was 0.0532; in assay [2] (first compound 0.3162 µM), 0.0672; in assay [2] (first compound 1 µM) it was 0.0608; in assay [3] (first compound 0.01 µM), 0.482; in assay [3] (first compound 0.03162 µM), 0.489. Moreover, the relative viability in assay [3] (first compound 0.1 µM) stood at 0.503; in assay [3] (first compound 0.3162 µM), 0.563; in assay [3] (first compound 1 µM), 0.431; in assay [4] (first compound 0.01 µM), 1.07; in assay [4] (first compound 0.03162 µM), 0.968; in assay [4] (first compound 0.1 µM), 0.815. Also, the relative viability in assay [4] (first compound 0.3162 µM) turned out to be 1; in assay [4] (first compound 1 µM), 1.21.
Take CAL-12T: the relative viability was 1.2 in assay [1] (first compound 0.2 µM); 1.25 in assay [1] (first compound 0.6325 µM); 1.31 in assay [1] (first compound 2 µM); 1.39 in assay [1] (first compound 6.325 µM); 1.2 in assay [1] (first compound 20 µM); 1.38 in assay [2] (first compound 0.01 µM). The relative viability turned out to be 1.35 in assay [2] (first compound 0.03162 µM); 1.17 in assay [2] (first compound 0.1 µM); 1.45 in assay [2] (first compound 0.3162 µM); 1.2 in assay [2] (first compound 1 µM); 0.263 in assay [3] (first compound 0.01 µM); 0.289 in assay [3] (first compound 0.03162 µM). The relative viability in assay [3] (first compound 0.1 µM) stood at 0.329; in assay [3] (first compound 0.3162 µM), 0.333; in assay [3] (first compound 1 µM) it was 0.286; in assay [4] (first compound 0.01 µM), 1.17; in assay [4] (first compound 0.03162 µM), 1.13; in assay [4] (first compound 0.1 µM) it was 1.16. For the same cell line, the relative viability in assay [4] (first compound 0.3162 µM) amounted to 1.41; in assay [4] (first compound 1 µM), 1.13.
COR-L23: the relative viability in assay [1] (first compound 0.2 µM) was found to be 0.951; in assay [1] (first compound 0.6325 µM), 1.01; in assay [1] (first compound 2 µM), 1.02; in assay [1] (first compound 6.325 µM), 1.06; in assay [1] (first compound 20 µM), 0.938; in assay [2] (first compound 0.01 µM), 0.999. In addition, the relative viability in assay [2] (first compound 0.03162 µM) came to 1.14; in assay [2] (first compound 0.1 µM), 1.11; in assay [2] (first compound 0.3162 µM) it was 1.02; in assay [2] (first compound 1 µM), 1.02; in assay [3] (first compound 0.01 µM), 0.196; in assay [3] (first compound 0.03162 µM) it was 0.224. Besides, the relative viability was 0.188 in assay [3] (first compound 0.1 µM); 0.215 in assay [3] (first compound 0.3162 µM); 0.187 in assay [3] (first compound 1 µM); 0.88 in assay [4] (first compound 0.01 µM); 0.783 in assay [4] (first compound 0.03162 µM); 0.789 in assay [4] (first compound 0.1 µM). Moreover, the relative viability in assay [4] (first compound 0.3162 µM) was 0.902; in assay [4] (first compound 1 µM), 0.723.
